# Test results published in patent US20230372337A1, “Combination Therapy Comprising an AXL Inhibitor” (BERGENBIO ASA, priority 2020, published 2023).
# Columns and labels:
# Type I IFN related genes = experiment: RT2 Profiler PCR Array Mouse Type I Interferon Response on 4T1 tumors (Example 1 mechanistic study); format: in vivo, BALB/c mice; details: 4T1 tumors day 19; one animal per group compared to one of the controls
# Experimental: RNA was extracted from snap frozen tumors using the RNEasy Microarray Tissue Mini kit from Qiagen following the manufacturer's instructions. As tumors contained Doxorubicin and powderizing them could expose personnel to harmful substances, the RNA was extracted in a closed system using the GentleMACS dissociator and M Tubes. Purity and concentration of RNA was measured using Nanodrop. cDNA was synthesized from RNA using the RT2 First Strand kit (Qiagen) according to the manufacturer's instructions. cDNA was mixed with RT2 SYBR Green Mastermix (Qiagen) and loaded into RT^2 Profiler™ PCR Array Mouse Type I Interferon Response, to analyze the expression of the 84 genes listed in Table 2. The plates were analysed using a Light Cycler 480 (Roche) and data were analysed using the Qiagen Data Analysis Centre and Graph Pad (Prism).
# 16 animals were used in the mechanistic study and were sacrificed day 19 post implantation, 3 days after Doxorubicin injection. […] The 4 animals from group A (no treatment) were used as controls. The fold changes of 4 animals of group B (Bemcentinib), group F (Doxorubicin) and group H (Bemcentinib+Doxorubicin) are expressed as compared to the control animals (group A).
# global gene expression = experiment: RNA sequencing of 4T1 tumors 72 hours after doxorubicin i.t. (Example 2); format: in vivo, Balb/c mice
# Experimental: FASTQ files were generated and quality controlled by the Genomic Core Facility. The trimmed samples were aligned to the reference genome using STAR. Gene expression quantification was achieved using feature Counts. Following QC, 8 and 7 samples from in vitro and in vivo studies respectively were identified as outliers and were excluded from subsequent analysis. RUVseq was used to remove hidden batch effect and/or other unwanted variations.
# Read counts were analyzed for differential expression using the R package DESeq2. DESeq2 uses the raw read counts, applies an internal normalization method, and does estimation of library size, estimation of dispersion, and negative binomial generalized linear model fitting. The resulting differentially expressed gene lists (adjusted p-value cutoff=0.05) were then analyzed using Metascape to find the enriched terms.
# RNA sequence analysis (RNAseq) was performed on tumor samples from mice sacrificed 72 hours after doxorubicin i.t. treatment (corresponding to group E and F at the 72 hr timepoint in Example 1).
# EMT related genes = experiment: RT2 Profiler PCR Array Mouse Epithelial to Mesenchymal Transition (EMT) on 4T1 tumors (Example 2); format: in vivo, Balb/c mice; details: for Downregulated EMT genes (number): doxorubicin 1 mg/kg i.t., 72 hr timepoint; for EMT related genes significantly downregulated (number): doxorubicin 3 mg/kg i.t., 72 hours
# Experimental: (§1) RNA was extracted from […] snap frozen tumors using the RNEasy Microarray Tissue Mini kit from Qiagen following the manufacturer's instructions. As tumors contained Doxorubicin and powderizing them could expose personnel to harmful substances, the RNA was extracted in a closed system using the GentleMACS dissociator and M Tubes. Purity and concentration of RNA was measured using Nanodrop. cDNA was synthesized from RNA using the RT^2 First Strand kit (Qiagen) according to the manufacturer's instructions. cDNA was mixed with RT^2 SYBR Green Mastermix (Qiagen) and loaded into RT Profiler™ PCR Array Mouse Type I Interferon Response or RT^2 Profiler™ PCR Array Mouse Epithelial to Mesenchymal Transition (EMT), analyzing the expression of 84 genes listed in Tables 9 and 10. The plates were analyzed using Light Cycler 480 (Roche) and data were analyzed using the Qiagen Data Analysis Centre and Graph Pad (Prism).
# (§2) Quiagen RT^2 software was used to analyze all the samples from different groups. To be able to generate heatmaps and graph on fold change including error bars, the data have been analyzed manually with Graph Pad (Prism) when the Quiagen RT^2 software gave significant results between the different groups. For IFN type 1 response 1 mg/kg 48, 72 h and 3 mg/kg 48 h, were analyzed manually. For EMT, 1 mg/kg 48, 72 h, 3 mg/kg 72 h. When the data have been analyzed manually, the results are presented as histograms of mRNA fold changes. For the time points and doses analyzed by the software, the results are presented as tables.
# EMT related gene expression in tumors was assessed by the RT^2 Profiler™ PCR Array for the 1 and 3 mg/kg doses at 48 and 72 hr timepoints. The highest dose and 24 hr timepoint samples were excluded based on the results outlined above.
# [1] = test system: type I IFN related genes (ISG); experiment: RT2 Profiler PCR Array Mouse Type I Interferon Response on 4T1 tumors (Example 2); format: in vivo, Balb/c mice
# From the text: Bemcentinib was given as a loading dose for 3 days (11-13 after tumor implantation) and then as a standard dose until sacrifice.
# 9 mice have been excluded of the study because of the absence of tumor on day 11. On day 11 post implantation half of the cages were placed in the bemcentinib treated group and the other half in the […]. The average tumor volume when bemcentinib treatment was initiated (day 11) was 54.99 mm^3. […] The tumor volumes when bemcentinib treatment was initiated and the day of randomization are recorded in table 8. The intra tumomoral injection of doxorubicin and sting agonists was adjusted to the tumor volume.
# Doxorubicin is provided in a 2 mg/ml solution. As it is technically challenging to inject 50 ul liquid into tumors measuring <100 mm^3, the total dosing volume was calculated based on the following formula: V=50 ul×(TV/120). This is done to minimize variability due to leakage during intratumoral injection. For the 1 mg/kg dose (E,F) Doxorubicin was given at a concentration of 0.5 mg/ml, which corresponds to 1 mg/kg for a 25 g mouse with a tumor of 120 mm^3, and 1 mg/kg for a 20 g mouse with a tumor of 100 mm^3. For 3 mg/kg dose (G,H), a solution of 1.5 mg/ml was used and same volumes was injected. For the 6 mg/kg dose (I,J) the commercial solution of 2 mg/ml will be used and 75 ul was injected for tumor with a volume of 120 mm^3.
# The same formula as for doxorubicin was used V=50 ul×(TV/120).
# as §1, §2
# GraphPadPrism was used to generate the heat maps, graphs with mRNA fold change, and to make the statistics. Multiple TTests, paired were performed on ΔΔ Ct values.
# The expression of type I IFN related genes (ISG) was assessed in tumors collected 24, 48 and 72 hours after i.t. doxorubicin treatment. 3 groups were compared per timepoint: bemcentinib (bern), doxorubicin only (dox) and doxorubicin combined with bemcentinib (doxbern), the fold changes were compared with the control groups injected with PBS, and the fold change was 1 for the control groups.
# Yumm1.7 cells = experiment: qRTPCR of IFN related genes in Yumm1.7 cells in vitro (Example 4); format: cell-based, mouse
# [2] = 24 hours after DMXAA i.t. treatment
# [3] = doxorubicin 1 mg/kg i.t., 24 hours after injection, 84 genes
# [4] = Yumm1.7 cells, doxorubicin 24 hours
SMILES,Expression of IFN type I related genes (Type I IFN related genes),GO terms significantly upregulated compared to control (number) (global gene expression),Interferon response (gene ontology) compared to control (global gene expression),Downregulated EMT genes (number) (EMT related genes),EMT related genes significantly downregulated (number) (EMT related genes),"ISG significantly upregulated compared to control (number) [1, 3]","ISG significantly upregulated compared to control (number) ([1]; doxorubicin 1 mg/kg i.t., 48 h)","ISG significantly upregulated compared to control (number) ([1]; doxorubicin 3 mg/kg i.t., 48 h)",other results
"Nc1nc(Nc2ccc3c(c2)CC[C@@H](N2CCCC2)CC3)nn1-c1cc2c(nn1)-c1ccccc1CCC2 [Bemcentinib, bemcentinib]",only a few upregulated genes,2,downregulated,one,none,no ISG,none,No,"GO terms significantly downregulated compared to control (number) (global gene expression): 20; Fold change of upregulated ISG [1, 2]: around 2 fold; ISG significantly upregulated compared to control (number) [1, 2]: 3; Effect on the IFNB mediated response (Yumm1.7 cells; Yumm1.7 cells treated with IFNB): appeared to increase the IFNB mediated response, although not reaching significance"
"COc1cccc2c1C(=O)c1c(O)c3c(c(O)c1C2=O)C[C@@](O)(C(=O)CO)C[C@@H]3O[C@H]1C[C@H](N)[C@H](O)[C@H](C)O1 [Doxorubicin, doxorubicin]",increase of expression,1,No Interferon response,one,none,no ISG,one,No,"Interferon and immune response (gene ontology) compared to bern only group (global gene expression): upregulated; Fold change of one upregulated ISG ([1]; doxorubicin 1 mg/kg i.t., 48 h): 3 fold; ISG significantly upregulated compared to control (number) ([1]; doxorubicin 3 mg/kg i.t., 24 h): one; ISG significantly upregulated compared to control (number) ([1]; doxorubicin 6 mg/kg i.t., 24 hours): 1; ISG significantly upregulated compared to control (number) ([1]; doxorubicin 6 mg/kg i.t., 48 hours): 8; ISG significantly upregulated compared to control (number) ([1]; doxorubicin 6 mg/kg i.t., 72 hours): 6; IFIT1 mRNA fold change (Yumm1.7 cells; [4]): 20 fold; OAS2 mRNA fold change (Yumm1.7 cells; [4]): 50 fold; RSAD2 mRNA fold change (Yumm1.7 cells; [4]): 20 fold; ISG significantly upregulated compared to control (number) (Yumm1.7 cells; Yumm1.7 cells, doxorubicin 24 hours, 21 ISG tested): 9"
